Results as given in US11891379B2, “Deuterated Defactinib compound and use thereof” (HINOVA PHARMACEUTICALS INC., priority 2018, dated 2024).

Experiments:
[1] = Metabolic stability in rat liver microsomes; format: in vitro ADME; settings: for half-life at 2 μM: rat liver microsomes 0.5 mg/mL, test compound 2 μM, sampling 0-60 min, read-out: Half life t1/2 (min) in rat liver microsomes; for metabolic stability in the liver microsomes compared with non-deuterated control defactinib: rat liver microsomes, result in words
Procedure: (§1) Step 1. The mother solution was prepared according to the component ratio in Table 1 below:
(§2) Step 2: Two experiments were carried out as follows:
(§3) A) Adding reduced coenzyme II (NADPH): 20 mg/mL liver microsomes (10 μL) and 10 mM NADPH (40 μL) were added into the incubation experiment. The final concentrations of liver microsomes and NADPH were 0.5 mg/mL and 1 mM, respectively.
(§4) B) Without NADPH: 20 mg/mL liver microsomes (10 μL) and high pure water (40 μL) were added into the incubation experiment. The final concentration of liver microsomes was 0.5 mg/mL.
(§5) Step 3: The reaction began after adding 200 μM positive control (4 μL) or test compound. The positive control was verapamil in this experiment. The final concentration of the test compound was 2 μM.
(§6) Step 4: At the time points 0 min, 15 min, 30 min, 45 min, and 60 min, 50 μL solution was sampled from each reaction solution. Acetonitrile (4× volumes of reaction solution) and IS (100 nM alprazolam, 200 nM labetalol, 200 nM caffeine, and 2 μM ketoprofen) were added to the reaction solution. The sample was centrifuged at 3220 g gravity for 40 min. 100 μL high pure water was added into 100 μL supernatant and analyzed by LC-MS/MS.
(§7) Step 5: Data analysis: the peak area was determined from the extracted ion chromatogram. The slope value k was determined by linear regression of the natural logarithm obtained from the curve between the residual percentage of parent drug and the incubation time.
(§8) In vitro half-life (In vitro t1/2) was determined by the slope value: in vitro t1/2=−([…]/k In vitro intrinsic clearance (in vitro CLint, in […]) was converted from in vitro half-life t1/2 (min) using the following equation (mean value of repeated determinations): […]
(§9) Scale up intrinsic clearance (Scale up CLint, in mL/min/kg) was converted from in vitro half-life t1/2 (min) using the following equation (mean value of repeated determinations): […]

[2] = Metabolic stability in human liver microsomes; format: in vitro ADME; settings: for half-life at 2 μM: human liver microsomes 0.5 mg/mL, test compound 2 μM, sampling 0-60 min, read-out: Half life t1/2 (min) in human liver microsomes; for metabolic stability in the liver microsomes compared with non-deuterated control defactinib: human liver microsomes, result in words
Procedure: as §1, §2, §3, §4, §5, §6, §7, §8, §9

[3] = Metabolic stability in mouse liver microsomes; format: in vitro ADME; settings: for half-life at 2 μM: mouse liver microsomes 0.5 mg/mL, test compound 2 μM, sampling 0-60 min, read-out: Half life t1/2 (min) in mouse liver microsomes; for metabolic stability in the liver microsomes compared with non-deuterated control defactinib: mouse liver microsomes, result in words
Procedure: as §1, §2, §3, §4, §5, §6, §7, §8, §9

[4] = Pharmacokinetic experiment in rats (PO, 10 mpk); format: in vivo; settings: Sprague-Dawley (SD), rat, 10 mg/kg, male SD rats, PO by gavage, plasma; for AUC: read-out: Exposure dose AUC; for half-life: read-out: Half life t1/2 (converted); for Tmax: read-out: Peak hours tmax; for Cmax: read-out: Peak plasma concentration Cmax(ng/mL); for MRT inf: read-out: Retention time MRTinf
Procedure: Appropriate amount of drug (equivalent to 10 mg of the original drug) was accurately weighed, to which was first added 0.25 ml DMA to dissolve drug, and 0.5% CMC-Na was slowly added to 5 ml, then mixed well with ultrasonic and vortex. 0.2 ml final solution prepared was taken out and stored at −20° C. for concentration determination. Three healthy adult male SD rats (180-250 g) received drugs at 5 ml/kg by gavage after fasting overnight (free drinking water); 0.1 ml blood was collected from retroorbital venous plexus before administration and 0.5, 1, 2, 4, 6, 8, 12 and 24 h after administration, and plasma was separated by centrifugation at 4° C. for 5 min and stored at −20° C. for use. Then, LC/MS/MS method was used to determine the concentration of compounds in plasma.

Row | Structure (SMILES) | half-life at 2 μM [1] [min] | metabolic stability in the liver microsomes compared with non-deuterated control defactinib [1] | half-life at 2 μM [2] [min] | metabolic stability in the liver microsomes compared with non-deuterated control defactinib [2] | half-life at 2 μM [3] [min] | AUC [4] [ng·h/mL] | half-life [4] [h] | Tmax [4] [h] | Cmax [4] [ng/mL] | MRT inf [4] [h] | metabolic stability in the liver microsomes compared with non-deuterated control defactinib [3]
1 | [2H]C([2H])([2H])N(c1nccnc1CNc1nc(Nc2ccc(C(=O)NC)cc2)ncc1C(F)(F)F)S(C)(=O)=O [Compound 2, N-methyl-4-((4-(((3-(N-deuteromethylmethanesulfonamido)pyrazin-2-yl)methyl)amino)-5-(trifluoromethyl)pyrimidin-2-yl)amino)benzamide] | 47 | slightly worse | 100 | slightly worse | 70 |  |  |  |  |  | 
2 | [2H]C([2H])([2H])NC(=O)c1ccc(Nc2ncc(C(F)(F)F)c(NCc3nccnc3N(C)S(C)(=O)=O)n2)cc1 [Compound 1, N-(trideuteromethyl)-4-((4-(((3-(N-methylmethylsulfonyl)pyrazin-2-yl)methyl)amino)-5-(trifluoromethyl)pyrimidin-2-yl)amino)benzamide] | 151 | significantly improved | 894 | significantly improved | 87 | 2840 | 1.74 | 0.67 | 1220 | 2.03 | significantly improved
3 | CNC(=O)c1ccc(Nc2ncc(C(F)(F)F)c(NCc3nccnc3N(C)S(C)(=O)=O)n2)cc1 [Defactinib, N-methyl-4-((4-(((3-(N-methylmethylsulfonyl)pyrazin-2-yl)methyl)amino)-5-(trifluoromethyl)pyrimidin-2-yl)amino)benzamide] | 94 |  | 260 |  | 63 | 1650 | 1.46 | 0.67 | 643 | 2.4 | 
4 | [2H]C([2H])([2H])NC(=O)c1ccc(Nc2ncc(C(F)(F)F)c(NCc3nccnc3N(C([2H])([2H])[2H])S(C)(=O)=O)n2)cc1 [Compound 3, N-(trideuteromethyl)-4-((4-(((3-(N-deuteromethylmethanesulfonamido)pyrazin-2-yl)methyl)amino)-5-(trifluoromethyl)pyrimidin-2-yl)amino)benzamide] | 370 | significantly improved | 781 | significantly improved | 406 | 3740 | 2.46 | 1.67 | 971 | 3.35 | significantly improved
